{"source": "patent US20130266557A1", "about": "“METHODS FOR TREATMENT OF A SARCOMA USING AN EPIMETABOLIC SHIFTER (COENZYME Q10)” (priority 2009, published 2013)", "experiment_in_all_cases": "Induction of early apoptosis by CoQ10", "format_in_all_cases": "cell-based", "key": {"PaCa2": {"system": "PaCa2", "description": "(§1) The effects of Coenzyme Q10 treatment on a variety of oncogenic and normal cell lines were examined and compared. The sensitivity of cells to Coenzyme Q10 was assessed by monitoring induction of apoptosis. CoQ10 treatment of cells was carried out as described in detail below in the Materials and Methods. Induction of apoptosis was assessed in the treated cells by monitoring indicators of early apoptosis (e.g., Bcl-2 expression, caspase activation and by using annexin V assays) as described below. From these studies, the minimal CoQ10 dosage, e.g., concentration of CoQ10 and time of treatment, required to induce apoptosis in the panel of cell lines was determined.\n(§2) Cells were cultured in T-75 flasks with relevant medium supplemented with 10% Fetal Bovine Serum (FBS), 1% PSA (penicillin, streptomycin, amphotericin B) (Invitrogen and Cellgro) in a 37° C. incubator with 5% CO2 levels until 70-80% confluence was reached. To harvest cells for treatment, flasks were primed with 1 mL Trypsin, aspirated, trypsinized with an additional 3 mL, and incubated at 37° C. for 3-5 minutes. Cells were then neutralized with an equal volume of media and the subsequent solution was centrifuged at […] for 8 minutes. The supernatant was aspirated and the cells were resuspended with 8.5 ml of media. A mixture of 500 ul of the resuspension and 9.5 ml of […] was read twice by a coulter counter and the appropriate number of cells to be seeded into each dish was determined. Control and concentration ranging from 0-200 μM groups were examined in triplicate. From a 500 μM CoQ-10 stock solution, serial dilutions were performed to achieve desired experimental concentration in appropriate dishes. Dishes were incubated in a 37° C. incubator with 5% CO2 levels for 0-72 hours depending on cell type and experimental protocol.\n(§3) The volume of sample to load per well was determined using the raw mean concentration of protein obtained from the BCA protein assay. Approximately 30-60 μg of protein were loaded for each treatment time point. Proteins were run in triplicate on 12% Tris-HCl ready gels (Bio-Rad) or hand cast gels in 1× running buffer at 85 and 100 volts. Proteins were then transferred onto nitrocellulose paper for an hour at 100 volts, and blocked for another hour in a 5% milk solution. Membranes were placed in primary antibody (1 uL Ab:1000 uL TBST) (Cell Signaling) overnight at […] The following day, membranes were washed three times for ten minutes each with Tris-Buffered Saline Tween-20 (TBST), and secondary antibody (anti-rabbit; 1 uL Ab: 1000 uL TBST) was applied for an hour at […] Membranes were washed again three times for ten minutes with TBST and chemoluminescence using Pico or Femto substrate was completed (Pierce). Membranes were then developed at time intervals that produced the best visual results. After developing, membranes were kept in TBST at […] until Actin levels could be measured.\n(§4) Cells were washed twice in PBS10× and resuspended in Binding Buffer (0.1 M HEPES, pH 7.4; 1.4 M NaCl; 25 mM CaCl2). Samples of 100 μl were added to a culture tube with 5 μl of annexin-PE dye or […]. The cells were mixed and incubated without light at room temperature for 15 minutes. After which, 400 μl of 1×Binding Buffer was added to each sample and they were subjected to analysis by flow cytometry."}, "Hep3B": {"system": "Hep3B", "description": "as §1, §2, §3, §4"}, "[1]": {"system": "Mammary fiboblasts: 184A1 and 184B5", "settings": "BREAST: Mammary fiboblasts 184A1 and 184B5", "description": "as §1, §2, §3, §4"}, "Osteosarcoma (143b)": {"system": "Osteosarcoma (143b)", "description": "as §1, §2, §3, §4"}, "BT-20": {"system": "BT-20", "description": "as §1, §2, §3, §4"}, "Fibroblasts (nFib)": {"system": "Fibroblasts (nFib)", "settings": "SKIN: Fibroblasts (nFib)", "description": "as §1, §2, §3, §4"}, "Ewing's sarcoma (NCI)": {"system": "Ewing's sarcoma (NCI)", "description": "as §1, §2, §3, §4"}, "PC3": {"system": "PC3", "description": "as §1, §2, §3, §4"}, "[2]": {"system": "Keratinocytes (Heka, Hekn)", "settings": "SKIN: Keratinocytes (Heka, Hekn)", "description": "as §1, §2, §3, §4"}, "MCF-7": {"system": "MCF-7", "description": "as §1, §2, §3, §4"}}, "data": [{"substance": "Coenzyme Q10 [CoQ10]", "values": [{"measurement": "Indication of Early apoptosis (Bcl-2, annexin V, or caspase activation)", "setting": "PaCa2; PANCREAS: PaCa2", "value": "Very Strong"}, {"measurement": "Minimal CoQ10 Concentration required for induction of early apoptosis", "setting": "PaCa2; PaCa2", "value": 25, "unit": "µM"}, {"measurement": "Treatment Time required for induction of early apoptosis", "setting": "PaCa2; PaCa2", "value": 24, "unit": "h"}, {"measurement": "Minimal CoQ10 Concentration required for induction of early apoptosis", "setting": "Hep3B; Hep3B", "value": 50, "unit": "µM"}, {"measurement": "Treatment Time required for induction of early apoptosis", "setting": "Hep3B; Hep3B", "value": 24, "unit": "h"}, {"measurement": "Indication of Early apoptosis (Bcl-2, annexin V, or caspase activation)", "setting": "Hep3B; LIVER: Hep3B", "value": "Very Strong"}, {"measurement": "Indication of Early apoptosis (Bcl-2, annexin V, or caspase activation)", "setting": "[1]", "value": "None"}, {"measurement": "Indication of Early apoptosis (Bcl-2, annexin V, or caspase activation)", "setting": "Osteosarcoma (143b); BONE: Osteosarcoma (143b)", "value": "Very Strong"}, {"measurement": "Minimal CoQ10 Concentration required for induction of early apoptosis", "setting": "Osteosarcoma (143b); Osteosarcoma (143b)", "value": 50, "unit": "µM"}, {"measurement": "Treatment Time required for induction of early apoptosis", "setting": "Osteosarcoma (143b); Osteosarcoma (143b)", "value": 48, "unit": "h"}, {"measurement": "Indication of Early apoptosis (Bcl-2, annexin V, or caspase activation)", "setting": "BT-20; BREAST: BT-20", "value": "Strong"}, {"measurement": "Minimal CoQ10 Concentration required for induction of early apoptosis", "setting": "BT-20; BT-20", "value": 100, "unit": "µM"}, {"measurement": "Treatment Time required for induction of early apoptosis", "setting": "BT-20; BT-20", "value": 48, "unit": "h"}, {"measurement": "Indication of Early apoptosis (Bcl-2, annexin V, or caspase activation)", "setting": "Fibroblasts (nFib)", "value": "None"}, {"measurement": "Minimal CoQ10 Concentration required for induction of early apoptosis", "setting": "Ewing's sarcoma (NCI)", "value": 5, "unit": "µM"}, {"measurement": "Treatment Time required for induction of early apoptosis", "setting": "Ewing's sarcoma (NCI)", "value": 1, "unit": "h"}, {"measurement": "Minimal CoQ10 Concentration required for induction of early apoptosis", "setting": "PC3; PC3", "value": 25, "unit": "µM"}, {"measurement": "Treatment Time required for induction of early apoptosis", "setting": "PC3; PC3", "value": 24, "unit": "h"}, {"measurement": "Indication of Early apoptosis (Bcl-2, annexin V, or caspase activation)", "setting": "PC3; PROSTATE: PC3", "value": "Very Strong"}, {"measurement": "Indication of Early apoptosis (Bcl-2, annexin V, or caspase activation)", "setting": "[2]", "value": "None"}, {"measurement": "Indication of Early apoptosis (Bcl-2, annexin V, or caspase activation)", "setting": "MCF-7; BREAST: MCF-7", "value": "Strong"}, {"measurement": "Minimal CoQ10 Concentration required for induction of early apoptosis", "setting": "MCF-7; MCF-7", "value": 50, "unit": "µM"}, {"measurement": "Treatment Time required for induction of early apoptosis", "setting": "MCF-7; MCF-7", "value": 48, "unit": "h"}]}]}
